From US10836725B2, “Modulators of the integrated stress pathway” (Calico Life Sciences LLC, priority 2016, dated 2020)

System: ATF4 luciferase reporter
Assay: ATF4-Luc assay in HEK293T cells carrying the ATF4 luciferase reporter (in vitro model of VWMD)
Type: cell-based, human
Settings: 1 μg/mL tunicamycin, 7 hours, luminescence (One Glo)
How it was run: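 Reporter cells were stably generated by retroviral transduction and puromycin selection, then seeded at 30,000 cells/well. Next day, cells received 1 μg/mL tunicamycin with 200 nM test compound for 7 h, and luciferase luminescence was read with a one-step reagent. Values reported as EC50.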

For `O=C(COc1ccc(Cl)c(F)c1)NC12CC(C(=O)NCCc3c[nH]c4ccccc34)(C1)C2` [Compound 194], the EC50 was less than 250 nM.

Same assay, conditions: Homo sapiens, HEK-293T, 1 μg/mL tunicamycin, 7 hours, luminescence (One Glo)

Compared with `O=C(COc1ccc(Cl)c(F)c1)NC12CCC(C(=O)NCc3cncc(F)c3)(CC1)C(O)C2` (stereo not shown) [Compound 112, 4-[2-(4-chloro-3-fluorophenoxy)acetamido]-N-[(5-fluoropyridin-3-yl)methyl]-2-hydroxybicyclo[2.2.2]octane-1-carboxamide], `O=C(COc1ccc(Cl)c(F)c1)NC12CCC(C(=O)NCc3ccc(Cl)cc3)(CC1)C(O)C2` (stereo not shown) [Compound 132, 4-[2-(4-chloro-3-fluorophenoxy)acetamido]-N-[(4-chlorophenyl)methyl]-2-hydroxybicyclo[2.2.2]octane-1-carboxamide] is lower in EC50: greater than 2000 nM for the first, less than 250 nM for the second.

`O=C(COc1ccc(Cl)c(F)c1)NC12CCC(C(=O)NCc3ccc(C(F)(F)F)cn3)(CC1)[C@H](O)C2` (single isomer, unassigned) [Compound 113] and `O=C(COc1ccc(Cl)c(F)c1)NC12CCC(C(=O)NCc3ccc(C(F)(F)F)cc3)(CC1)C(O)C2` (stereo not shown) [Compound 110, 4-[2-(4-chloro-3-fluorophenoxy)acetamido]-2-hydroxy-N-{[4-(trifluoromethyl)phenyl]methyl}bicyclo[2.2.2]octane-1-carboxamide] cannot be ordered by EC50: less than 250 nM for the first, less than 250 nM for the second.

`COc1ccc(CCNC(=O)C23CC(NC(=O)COc4ccc(Cl)c(F)c4)(C2)C3)cc1Cl` [Compound 248, 3-[2-(4-chloro-3-fluorophenoxy)acetamido]-N-[2-(3-chloro-4-methoxyphenyl)ethyl]bicyclo[1.1.1]pentane-1-carboxamide] and `COc1ccc(CNC(=O)C23CC(NC(=O)COc4ccc(Cl)c(F)c4)(C2)C3)cc1OC` [Compound 202, 3-[2-(4-chloro-3-fluorophenoxy)acetamido]-N-[(3,4-dimethoxyphenyl)methyl]bicyclo[1.1.1]pentane-1-carboxamide] cannot be ordered by EC50: greater than 2000 nM for the first, greater than 2000 nM for the second.

Compared with `Cc1ccnc(CNC(=O)C23CCC(NC(=O)COc4ccc(Cl)c(F)c4)(CC2)CC3O)c1` (stereo not shown) [Compound 143, 4-[2-(4-chloro-3-fluorophenoxy)acetamido]-2-hydroxy-N-[(4-methylpyridin-2-yl)methyl]bicyclo[2.2.2]octane-1-carboxamide], `Cc1ccnc(CNC(=O)C23CC(NC(=O)COc4ccc(Cl)c(F)c4)(C2)C3)c1` [Compound 221, 3-[2-(4-chloro-3-fluorophenoxy)acetamido]-N-[(4-methylpyridin-2-yl)methyl]bicyclo[1.1.1]pentane-1-carboxamide] is higher in EC50: less than 250 nM for the first, greater than 2000 nM for the second.

`O=C(COc1ccc(Cl)c(F)c1)NC12CC(C(=O)NCc3ccc(F)c(C(F)(F)F)c3)(C1)C2` [Compound 180, 3-[2-(4-chloro-3-fluorophenoxy)acetamido]-N-{[4-fluoro-3-(trifluoromethyl)phenyl]methyl}bicyclo [1.1.1]pentane-1-carboxamide] and `O=C(COc1ccc(Cl)c(F)c1)NC12CC(C(=O)NCc3cc(F)cc(C(F)(F)F)c3)(C1)C2` [Compound 231, 3-[2-(4-chloro-3-fluorophenoxy)acetamido]-N-{[3-fluoro-5-(trifluoromethyl)phenyl]methyl}bicyclo[1.1.1]pentane-1-carboxamide] cannot be ordered by EC50: greater than 2000 nM for the first, greater than 2000 nM for the second.

`COc1c(F)cc(CNC(=O)C23CC(NC(=O)COc4ccc(Cl)c(F)c4)(C2)C3)cc1F` [Compound 206, 3-[2-(4-chloro-3-fluorophenoxy)acetamido]-N-[(3,5-difluoro-4-methoxyphenyl)methyl]bicyclo[1.1.1]pentane-1-carboxamide] and `COc1ccc(CNC(=O)C23CC(NC(=O)COc4ccc(Cl)c(F)c4)(C2)C3)cn1` [Compound 157, 3-[2-(4-chloro-3-fluorophenoxy)acetamido]-N-[(6-methoxypyridin-3-yl)methyl]bicyclo[1.1.1]pentane-1-carboxamide] cannot be ordered by EC50: greater than 2000 nM for the first, greater than 2000 nM for the second.

`Cc1csc(CNC(=O)C23CC(NC(=O)COc4ccc(Cl)c(F)c4)(C2)C3)n1` [Compound 176, 3-[2-(4-chloro-3-fluorophenoxy)acetamido]-N-[(4-methyl-1,3-thiazol-2-yl)methyl]bicyclo[1.1.1]pentane-1-carboxamide] and `Cc1cnc(CNC(=O)C23CC(NC(=O)COc4ccc(Cl)c(F)c4)(C2)C3)o1` [Compound 177, 3-[2-(4-chloro-3-fluorophenoxy)acetamido]-N-[(5-methyl-1,3-oxazol-2-yl)methyl]bicyclo[1.1.1]pentane-1-carboxamide] cannot be ordered by EC50: greater than 2000 nM for the first, greater than 2000 nM for the second.

First: O=C(COc1ccc(Cl)c(F)c1)NC12CCC(C(=O)NCCOc3ccc(Cl)cc3)(CC1)C(O)C2 (stereo not shown) [Compound 107, 4-[2-(4-chloro-3-fluorophenoxy)acetamido]-N-[2-(4-chlorophenoxy)ethyl]-2-hydroxybicyclo[2.2.2]octane-1-carboxamide]
Second: CC(C)(C)c1ccc(CNC(=O)C23CCC(NC(=O)COc4ccc(Cl)c(F)c4)(CC2)CC3O)cc1 (stereo not shown) [Compound 137, N-[(4-tert-butylphenyl)methyl]-4-[2-(4-chloro-3-fluorophenoxy)acetamido]-2-hydroxybicyclo[2.2.2]octane-1-carboxamide]
The EC50 of the first is lower: less than 250 nM for the first, 500 to 1000 nM for the second.

`O=C(COc1ccc(Cl)c(F)c1)NC12CC(C(=O)NCCc3ccccn3)(C1)C2` [Compound 153, 3-[2-(4-chloro-3-fluorophenoxy)acetamido]-N-[2-(pyridin-2-yl)ethyl]bicyclo[1.1.1]pentane-1-carboxamide] and `O=C(COc1ccc(Cl)c(F)c1)NC12CC(C(=O)NCc3cccnn3)(C1)C2` [Compound 205, 3-[2-(4-chloro-3-fluorophenoxy)acetamido]-N-[(pyridazin-3-yl)methyl]bicyclo[1.1.1]pentane-1-carboxamide] cannot be ordered by EC50: greater than 2000 nM for the first, greater than 2000 nM for the second.

First: O=C(COc1ccc(Cl)c(F)c1)NC12CC(C(=O)NCc3ccc(C(F)(F)F)nc3)(C1)C2 [Compound 149, 3-[2-(4-chloro-3-fluorophenoxy)acetamido]-N-{[6-(trifluoromethyl)pyridin-3-yl]methyl}bicyclo[1.1.1]pentane-1-carboxamide]
Second: O=C(COc1ccc(Cl)c(F)c1)NC12CC(C(=O)NCCc3ccc(C(F)(F)F)cn3)(C1)C2 [Compound 213, 3-[2-(4-chloro-3-fluorophenoxy)acetamido]-N-{2-[5-(trifluoromethyl)pyridin-2-yl]ethyl}bicyclo[1.1.1]pentane-1-carboxamide]
The EC50 of the first is lower: 250 to 500 nM for the first, greater than 2000 nM for the second. The first is the more potent here.

First: Cc1ccccc1CNC(=O)C12CC(NC(=O)COc3ccc(Cl)c(F)c3)(C1)C2 [Compound 197, 3-[2-(4-chloro-3-fluorophenoxy)acetamido]-N-[(2-methylphenyl)methyl]bicyclo[1.1.1]pentane-1-carboxamide]
Second: O=C(COc1ccc(Cl)c(F)c1)NC12CC(C(=O)NCc3ccccc3)(C1)C2 [Compound 162, N-benzyl-3-[2-(4-chloro-3-fluorophenoxy)acetamido]bicyclo[1.1.1]pentane-1-carboxamide]
The EC50 of the first is lower: 500 to 1000 nM for the first, greater than 2000 nM for the second.

`Cc1ccc(CNC(=O)C23CC(NC(=O)COc4ccc(Cl)c(F)c4)(C2)C3)c(C)n1` [Compound 251, 3-[2-(4-chloro-3-fluorophenoxy)acetamido]-N-[(2,6-dimethylpyridin-3-yl)methyl]bicyclo[1.1.1]pentane-1-carboxamide] and `Cc1cc(CNC(=O)C23CC(NC(=O)COc4ccc(Cl)c(F)c4)(C2)C3)c(C)o1` [Compound 160, 3-[2-(4-chloro-3-fluorophenoxy)acetamido]-N-[(2,5-dimethylfuran-3-yl)methyl]bicyclo[1.1.1]pentane-1-carboxamide] cannot be ordered by EC50: greater than 2000 nM for the first, greater than 2000 nM for the second.

Compared with `O=C(COc1ccc(Cl)c(F)c1)NC12CC(C(=O)NCCCc3ccc(F)cc3)(C1)C2` [Compound 204, 3-[2-(4-chloro-3-fluorophenoxy)acetamido]-N-[3-(4-fluorophenyl)propyl]bicyclo[1.1.1]pentane-1-carboxamide], `O=C(COc1ccc(Cl)c(F)c1)NC12CC(C(=O)NCc3ccc(F)cc3)(C1)C2` [Compound 245, 3-[2-(4-chloro-3-fluorophenoxy)acetamido]-N-[(4-fluorophenyl)methyl]bicyclo[1.1.1]pentane-1-carboxamide] is higher in EC50: less than 250 nM for the first, greater than 2000 nM for the second.

`C[C@@H](NC(=O)C12CC(NC(=O)COc3ccc(Cl)c(F)c3)(C1)C2)c1ccc(Cl)cc1` [Compound 198, 3-[2-(4-chloro-3-fluorophenoxy)acetamido]-N-[(1R)-1-(4-chlorophenyl)ethyl]bicyclo[1.1.1]pentane-1-carboxamide] and `C[C@H](NC(=O)C12CC(NC(=O)COc3ccc(Cl)c(F)c3)(C1)C2)c1ccc(Cl)cc1` [Compound 183, 3-[2-(4-chloro-3-fluorophenoxy)acetamido]-N-[(1S)-1-(4-chlorophenyl)ethyl]bicyclo[1.1.1]pentane-1-carboxamide] cannot be ordered by EC50: greater than 2000 nM for the first, greater than 2000 nM for the second.

`CCOc1ccc(CNC(=O)C23CC(NC(=O)COc4ccc(Cl)c(F)c4)(C2)C3)cc1` [Compound 240, 3-[2-(4-chloro-3-fluorophenoxy)acetamido]-N-[(4-ethoxyphenyl)methyl]bicyclo[1.1.1]pentane-1-carboxamide] and `CC(C)c1ccc(CNC(=O)C23CC(NC(=O)COc4ccc(Cl)c(F)c4)(C2)C3)cc1` [Compound 227, 3-[2-(4-chloro-3-fluorophenoxy)acetamido]-N-{[4-(propan-2-yl)phenyl]methyl}bicyclo[1.1.1]pentane-1-carboxamide] cannot be ordered by EC50: greater than 2000 nM for the first, greater than 2000 nM for the second.

`CC(C)Cc1cc(CNC(=O)C23CC(NC(=O)COc4ccc(Cl)c(F)c4)(C2)C3)on1` [Compound 212, 3-[2-(4-chloro-3-fluorophenoxy)acetamido]-N-{[3-(2-methylpropyl)-1,2-oxazol-5-yl]methyl}bicyclo[1.1.1]pentane-1-carboxamide] and `O=C(COc1ccc(Cl)c(F)c1)NC12CC(C(=O)NCCn3cccn3)(C1)C2` [Compound 252, 3-[2-(4-chloro-3-fluorophenoxy)acetamido]-N-[2-(1H-pyrazol-1-yl)ethyl]bicyclo[1.1.1]pentane-1-carboxamide] cannot be ordered by EC50: greater than 2000 nM for the first, greater than 2000 nM for the second.

In the case of `Cc1cc(CNC(=O)C23CC(NC(=O)COc4ccc(Cl)c(Cl)c4)(C2)C3)n(C)n1` [Compound 154, 3-[2-(3,4-dichlorophenoxy)acetamido]-N-[(1,3-dimethyl-1H-pyrazol-5-yl)methyl]bicyclo[1.1.1]pentane-1-carboxamide], the EC50 is reported as greater than 2000 nM.
